# In article PMC7413254 (Nature Communications, 2020):
# What was measured:
# Assay type in all cases: cell-based
# PfCRT^Ecu1110 [1] = target: T1, PfCRT^Ecu1110 (Plasmodium falciparum, UniProt Q9N623, A220S/I356L/K76T/N326D); assay: [3H]CQ uptake into Xenopus oocytes, cis-inhibition by unlabelled solute; settings: for PfCRT-mediated [3H]CQ transport, cis-inhibition (% PfCRTEcu1110 control): PfCRTEcu1110 oocytes, background [3H]CQ accumulation subtracted, normalised to oocyte type control; for [3H]CQ transport (% PfCRTEcu1110 control), cis-inhibition, PfCRTEcu1110: PfCRT-mediated component (background subtracted), sheet title says normalised to PfCRTDd2 control, mean ± SEM, SEM
# From the text: (§1) The orientation of PfCRT in the parasite’s DV membrane, and also in the oocyte plasma membrane, is such that its N- and C-termini extend into the cytosol. The oocytes were suspended in a reaction buffer adjusted to pH 5.5 to mimic the pH of the DV lumen[1],[2]. In this scenario, the transport of a substrate via PfCRT from the acidic extracellular solution into the oocyte cytosol[15] is analogous to the parasite’s PfCRT-mediated efflux of a substrate from the acidic DV and into the cytosol. Unless specified otherwise, this is the direction in which substrate transport was measured in the oocyte assays.
# (§2) Unless specified otherwise, the transport assays were conducted over 1.5 h at 27.5 °C and the reaction buffer was ND96 (96 mM NaCl, 2 mM KCl, 1 mM MgCl2, 1.8 mM CaCl2, 10 mM MES and 10 mM Tris-base) at pH 5.5.
# (§3) Ten oocytes were washed twice with the relevant ND96 buffer. […] The assay was terminated by removing the reaction buffer and washing the oocytes with ice-cold ND96 buffer. The oocytes were lysed in 10% (w/v) sodium dodecyl sulfate (SDS) and the radioactivity accumulated within each oocyte was measured with a MicroBeta^2 microplate liquid scintillation analyser (PerkinElmer).
# (§4) At least four independent experiments were performed (on different days and using oocytes from different frogs), and within each experiment measurements were made from ten oocytes per treatment.
# PfCRT^Dd2 [2] = target: T2, PfCRT^Dd2 (Plasmodium falciparum, UniProt Q9N623, A220S/I356T/K76T/M74I/N326S/N75E/Q271E/R371I); assay: as above; settings: PfCRTDd2 oocytes, background [3H]CQ accumulation subtracted, normalised to oocyte type control
# From the text: as §1, §2, §3, §4
# PfCRT^Ecu1110 [3] = target: T1, PfCRT^Ecu1110; assay: cell-based; settings: for PfCRT-mediated [3H]CQ transport, trans-stimulation (% PfCRTEcu1110 control): PfCRTEcu1110 oocytes, normalised to oocyte type control; for [3H]CQ transport (% PfCRTDd2 control), trans-stimulation, PfCRTEcu1110: PfCRT-mediated component (background subtracted), sheet title says normalised to PfCRTDd2 control, mean ± SEM, SEM
# Experimental: as §2
# (§5) The intracellular concentrations were calculated using previous estimates of the volume of stage V–VI oocytes (~400 nL[60]). […] The oocytes were injected with VF-6 suspended in 25 nL ND96 buffer adjusted to pH 5.0, 5.5, 6.0 or 7.0, which corresponded to the injection of 2.5–250 fmol of H^+. The Na^+-dependence of the trans-stimulatory effect of VF-6 was assessed by injecting the oocytes with VF-6 suspended in ND96 buffer (pH 5.5) or a Na^+-free version of this buffer (the Na^+ was replaced with choline).
# as §4
# PfCRT^Dd2 [4] = target: T2, PfCRT^Dd2; assay: cell-based; settings: for PfCRT-mediated [3H]CQ transport, trans-stimulation (% PfCRTDd2 control): PfCRTDd2 oocytes, normalised to oocyte type control; for [3H]CQ transport (% PfCRTDd2 control), trans-stimulation, PfCRTDd2: PfCRT-mediated component (background subtracted), mean ± SEM, SEM
# Experimental: as §2, §5, §4
# PfCRT^3D7 = PfCRT^3D7 (Plasmodium falciparum, UniProt Q8IBZ9); assay: cell-based; settings: for PfCRT-mediated [3H]CQ transport, trans-stimulation (% PfCRT3D7 control): PfCRT3D7 oocytes, normalised to oocyte type control
# Experimental: as §2, §5, §4
# [5] = [test solute]i = 5 mM (intracellular)
# [6] = [test solute]i = 45 mM (intracellular; 30 mM for some solutes due to solubility)
# [7] = [test solute]i = 5 mM (injected)
# [8] = [test solute]i = 45 mM (30 mM for some solutes due to solubility)
# T2 sequence (Q9N623 whole entry A220S/I356T/K76T/M74I/N326S/N75E/Q271E/R371I): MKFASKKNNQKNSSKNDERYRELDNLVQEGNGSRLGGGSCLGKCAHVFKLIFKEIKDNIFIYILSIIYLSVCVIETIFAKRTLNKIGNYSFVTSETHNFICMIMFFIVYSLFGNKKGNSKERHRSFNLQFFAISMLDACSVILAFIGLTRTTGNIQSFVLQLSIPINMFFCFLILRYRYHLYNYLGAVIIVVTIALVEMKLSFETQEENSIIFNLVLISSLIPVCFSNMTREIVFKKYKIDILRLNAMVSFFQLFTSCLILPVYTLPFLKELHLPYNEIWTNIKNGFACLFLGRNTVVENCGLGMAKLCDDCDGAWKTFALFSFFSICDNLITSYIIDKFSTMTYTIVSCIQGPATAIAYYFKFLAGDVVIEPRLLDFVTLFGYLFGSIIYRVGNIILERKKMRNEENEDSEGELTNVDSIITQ
# T1 sequence (Q9N623 whole entry A220S/I356L/K76T/N326D): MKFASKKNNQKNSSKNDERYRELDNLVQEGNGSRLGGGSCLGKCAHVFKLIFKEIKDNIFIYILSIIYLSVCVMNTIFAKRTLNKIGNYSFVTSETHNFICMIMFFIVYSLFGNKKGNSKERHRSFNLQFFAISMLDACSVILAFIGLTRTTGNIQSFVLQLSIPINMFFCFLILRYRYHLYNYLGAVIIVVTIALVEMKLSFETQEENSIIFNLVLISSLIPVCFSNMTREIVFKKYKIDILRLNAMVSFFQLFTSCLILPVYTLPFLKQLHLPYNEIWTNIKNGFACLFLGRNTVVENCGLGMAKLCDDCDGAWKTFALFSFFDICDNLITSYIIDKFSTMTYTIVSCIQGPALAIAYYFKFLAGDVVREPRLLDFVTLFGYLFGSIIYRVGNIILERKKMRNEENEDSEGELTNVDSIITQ
# Sequence of PfCRT^3D7 (Q8IBZ9 59-398): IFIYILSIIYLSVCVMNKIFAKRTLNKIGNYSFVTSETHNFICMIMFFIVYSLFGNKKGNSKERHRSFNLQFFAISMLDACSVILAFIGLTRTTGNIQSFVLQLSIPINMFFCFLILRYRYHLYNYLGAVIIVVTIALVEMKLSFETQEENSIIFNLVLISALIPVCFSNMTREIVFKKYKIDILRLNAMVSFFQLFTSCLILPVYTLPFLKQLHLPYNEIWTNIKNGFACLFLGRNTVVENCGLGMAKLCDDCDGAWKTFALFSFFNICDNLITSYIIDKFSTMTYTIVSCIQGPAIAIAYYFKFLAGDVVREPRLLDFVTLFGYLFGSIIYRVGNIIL
Substance,"PfCRT-mediated [3H]CQ transport, cis-inhibition (% PfCRTEcu1110 control) (PfCRT^Ecu1110 [1]; [test solute] = 0.5 mM)","PfCRT-mediated [3H]CQ transport, cis-inhibition (% PfCRTEcu1110 control) (PfCRT^Ecu1110 [1]; [test solute] = 1 mM)","PfCRT-mediated [3H]CQ transport, cis-inhibition (% PfCRTEcu1110 control) (PfCRT^Ecu1110 [1]; [test solute] = 2 mM)","[3H]CQ transport (% PfCRTEcu1110 control), cis-inhibition, PfCRTEcu1110 (PfCRT^Ecu1110 [1]; [test solute] = 2 mM)","PfCRT-mediated [3H]CQ transport, cis-inhibition (% PfCRTDd2 control) (PfCRT^Dd2 [2]; [test solute] = 0.5 mM)","PfCRT-mediated [3H]CQ transport, cis-inhibition (% PfCRTDd2 control) (PfCRT^Dd2 [2]; [test solute] = 1 mM)","PfCRT-mediated [3H]CQ transport, cis-inhibition (% PfCRTDd2 control) (PfCRT^Dd2 [2]; [test solute] = 2 mM)","PfCRT-mediated [3H]CQ transport, trans-stimulation (% PfCRTEcu1110 control) (PfCRT^Ecu1110 [3]; [5])","PfCRT-mediated [3H]CQ transport, trans-stimulation (% PfCRTEcu1110 control) (PfCRT^Ecu1110 [3]; [6])","[3H]CQ transport (% PfCRTDd2 control), trans-stimulation, PfCRTEcu1110 (PfCRT^Ecu1110 [3]; [7])","[3H]CQ transport (% PfCRTDd2 control), trans-stimulation, PfCRTEcu1110 (PfCRT^Ecu1110 [3]; [8])","PfCRT-mediated [3H]CQ transport, trans-stimulation (% PfCRTDd2 control) (PfCRT^Dd2 [4]; [5])","PfCRT-mediated [3H]CQ transport, trans-stimulation (% PfCRTDd2 control) (PfCRT^Dd2 [4]; [6])","[3H]CQ transport (% PfCRTDd2 control), trans-stimulation, PfCRTDd2 (PfCRT^Dd2 [4]; [7])","[3H]CQ transport (% PfCRTDd2 control), trans-stimulation, PfCRTDd2 (PfCRT^Dd2 [4]; [8])","[3H]CQ transport (% PfCRT3D7 control), trans-stimulation, PfCRT3D7 (PfCRT^3D7; SEM)","PfCRT-mediated [3H]CQ transport, trans-stimulation (% PfCRT3D7 control) (PfCRT^3D7; [5])","PfCRT-mediated [3H]CQ transport, trans-stimulation (% PfCRT3D7 control) (PfCRT^3D7; [6])","[3H]CQ transport (% PfCRTEcu1110 control), cis-inhibition, PfCRTEcu1110 (PfCRT^Ecu1110 [1]; [test solute] = 0.5 mM)","[3H]CQ transport (% PfCRTEcu1110 control), cis-inhibition, PfCRTEcu1110 (PfCRT^Ecu1110 [1]; [test solute] = 1 mM)"
AEALERMF [AF-8],52 ± 2.9 % PfCRTEcu1110 control,41 ± 2.1 % PfCRTEcu1110 control,32 ± 1.1 % PfCRTEcu1110 control,10 ± 0.06 % PfCRTEcu1110 control,61 ± 1.3 % PfCRTDd2 control,52 ± 2.6 % PfCRTDd2 control,19 ± 0.1 % PfCRTDd2 control,96 ± 3.1 % PfCRTEcu1110 control,98 ± 4.1 % PfCRTEcu1110 control,29 ± 1.0 % PfCRTEcu1110 control,30 ± 1.9 % PfCRTEcu1110 control,97 ± 2.8 % PfCRTDd2 control,96 ± 4.3 % PfCRTDd2 control,97 ± 2.8 % PfCRTDd2 control,96 ± 4.3 % PfCRTDd2 control,0.1 ± 0.03,97 ± 3.2 % PfCRT3D7 control,97 ± 3.5 % PfCRT3D7 control,–,–
DLDDALDK [DK-8],49 ± 1.4 % PfCRTEcu1110 control,39 ± 2.1 % PfCRTEcu1110 control,30 ± 0.8 % PfCRTEcu1110 control,9.0 ± 0.05 % PfCRTEcu1110 control,44 ± 3.7 % PfCRTDd2 control,32 ± 1.5 % PfCRTDd2 control,24 ± 0.8 % PfCRTDd2 control,95 ± 4.9 % PfCRTEcu1110 control,97 ± 2.9 % PfCRTEcu1110 control,29 ± 1.5 % PfCRTEcu1110 control,29 ± 1.1 % PfCRTEcu1110 control,98 ± 3.3 % PfCRTDd2 control,95 ± 4.1 % PfCRTDd2 control,98 ± 3.3 % PfCRTDd2 control,95 ± 4.1 % PfCRTDd2 control,–,96 ± 3.3 % PfCRT3D7 control,96 ± 3.4 % PfCRT3D7 control,15 ± 0.6 % PfCRTEcu1110 control,13 ± 0.1 % PfCRTEcu1110 control
DLPVG [DG-5],46 ± 1.8 % PfCRTEcu1110 control,33 ± 2.7 % PfCRTEcu1110 control,–,5.0 ± 0.05 % PfCRTEcu1110 control,29 ± 0.6 % PfCRTDd2 control,22 ± 1.3 % PfCRTDd2 control,11 ± 0.1 % PfCRTDd2 control,115 ± 1.5 % PfCRTEcu1110 control,118 ± 1.1 % PfCRTEcu1110 control,35 ± 1.5 % PfCRTEcu1110 control,36 ± 1.3 % PfCRTEcu1110 control,98 ± 1.0 % PfCRTDd2 control,113 ± 1.1 % PfCRTDd2 control,98 ± 1.0 % PfCRTDd2 control,113 ± 1.1 % PfCRTDd2 control,–,128 ± 2.2 % PfCRT3D7 control,146 ± 3.2 % PfCRT3D7 control,14 ± 0.5 % PfCRTEcu1110 control,10 ± 0.6 % PfCRTEcu1110 control
